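1) Cells in 96-well plates. 2) Compound, 48 h, 5 concentrations. 3) Linear interpolation between surrounding doses. 4) Unreached endpoint = highest concentration. The concentration for full growth arrest is given as TGI.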
What was measured:
Assay in all cases: inhibition of tumour cell growth, NCI panel, 48 h
PC-3 prostate = system: PC-3 prostate
SF-268 CNS = system: SF-268 CNS
NCI-H23 lung = system: NCI-H23 lung
HCT-15 colon = system: HCT-15 colon
DU-145 prostate = system: DU-145 prostate
SNB-19 CNS = system: SNB-19 CNS
LOX IMVI melanoma = system: LOX IMVI melanoma
HOP-62 NSCLC = system: HOP-62 NSCLC
SK-MEL-2 melanoma = system: SK-MEL-2 melanoma
MDA-MB-231 breast = system: MDA-MB-231 breast
SK-MEL-5 melanoma = system: SK-MEL-5 melanoma
COLO 205 colon = system: COLO 205 colon
SR leukemia = system: SR leukemia
OVCAR-8 ovarian = system: OVCAR-8 ovarian
HCT-116 colon = system: HCT-116 colon
UACC-62 melanoma = system: UACC-62 melanoma
ACHN renal = system: ACHN renal
786-0 renal = system: 786-0 renal
SF-539 CNS = system: SF-539 CNS
SW-620 colon = system: SW-620 colon
HCC-2998 colon = system: HCC-2998 colon
NCI-H460 lung = system: NCI-H460 lung
T-47D breast = system: T-47D breast
UO-31 renal = system: UO-31 renal
BT-549 breast = system: BT-549 breast
SK-MEL-28 melanoma = system: SK-MEL-28 melanoma
NCI-H226 lung = system: NCI-H226 lung
HOP-92 NSCLC = system: HOP-92 NSCLC
K-562 leukemia = system: K-562 leukemia
RPMI-8226 leukemia = system: RPMI-8226 leukemia
MOLT-4 leukemia = system: MOLT-4 leukemia
OVCAR-4 ovarian = system: OVCAR-4 ovarian
A498 renal = system: A498 renal
U251 CNS = system: U251 CNS
NCI/ADR-RES ovarian = system: NCI/ADR-RES ovarian
EKVX NSCLC = system: EKVX NSCLC
CAKI-1 renal = system: CAKI-1 renal
HS 578T breast = system: HS 578T breast
MCF7 breast = system: MCF7 breast
HL-60(TB) leukemia = system: HL-60(TB) leukemia
TK-10 renal = system: TK-10 renal
SNB-75 CNS = system: SNB-75 CNS
RXF 393 renal = system: RXF 393 renal
MDA-MB-435 = system: MDA-MB-435
UACC-257 melanoma = system: UACC-257 melanoma
CCRF-CEM leukemia = system: CCRF-CEM leukemia
KM12 colon = system: KM12 colon
HT29 colon = system: HT29 colon
IGROV1 ovarian = system: IGROV1 ovarian

Measured: TGI

OC(c1cccnc1)C(F)(F)c1nc2ccccc2o1 (centres undefined)
> 100 µM: all assays above

Source: PubChem BioAssay (NCI)
